Here are results for one molecule from US20090012179A1, “Use of Tyrphostins to Stimulate Neurite Outgrowth” (priority 2004, published 2009).

Data set [1] relates to primary rat SNc neuron cultures. Briefly: [3H]Dopamine uptake in primary SNc neuron cultures. The class given is cell-based. Particulars: A9 for six days. How it is done: Primary cultures of rat embryonic SNc neuron cultures were grown on treated 12-well plates (for dopamine uptake) or coverslips (for neuroprotection) for 10 days as described in the Examples section. In FIG. 6A, the neurons were treated with different concentrations of A9 for 6 days before dopamine uptake was measured. Data=mean±SD (n=3). In FIG. 6B, MPP^+ (25 μM) was added into medium on day 11, while A9 was added either on day 10 (pretreatment) or day 12 (after MPP^+). Half of the medium was changed with fresh A9 on day 14. The neurons were fixed on day 16 and stained for tyrosine hydroxylase (TH, green) and total-ERK (red). Images were captured with fluorescence microscopy at magnification×100.
Dopamine uptake: NS20Y cells or neuron cultures are plated on poly-L-lysine (for NS20Y) or poly-D-lysine (for neuron culture)-coated 24-well plates and grown to confluence. The medium is decanted and cells are prepared for [^3H]dopamine uptake. Cells are incubated in the presence or absence of mazindol (10 μM to determine nonspecific uptake) for at least 10 minutes prior to addition of [^3H]dopamine. The uptake assay (final volume 0.5 ml) is initiated by the addition of 50 nM [^3H]dopamine and 2 μM dopamine in Krebs-HEPES buffer. […] Radioactivity remaining in each well is determined using liquid scintillation spectrometry. […]

In data set [2] the test system is ERK. Briefly: ERK activation in HEK293 cells. The class given is cell-based, human. How it is done:
Cell stimulation, immunoblotting, and immunoprecipitation: Cells or neurons are grown in 6-well or 12-well plates to 80-90% confluence. The cells are starved in serum-free DMEM overnight, and then incubated with receptor agonists at 37° C. for the indicated durations. In some experiments, signaling inhibitors are added 45 minutes before simulation. Incubation is terminated by placing the tissue culture cluster on ice and rapidly aspirating the medium, followed by the addition of ice-cold RIPA^+ buffer (50 mM Tris-HCl, pH 7.5, 150 mM NaCl, 1% NP-40, 0.5% deoxycholate, 0.1% SDS, 1 mM NaVO3, and protease inhibitor (Calbiochem, San Diego, Calif.)) and incubation for 15 minutes with shaking. After centrifugation (14,000×g at 4° C. for 15 minutes), the supernatant is collected and the protein concentration is measured and adjusted using RIPA^+ buffer. […] The proteins are transferred to PVDF membrane (Millipore), detected with the primary antibodies (including anti-active ERK; anti-p-Tyr clone 4G10, Upstate; anti-TH; anti-DAT, sigma, anti-β-tubulin, etc.) and visualized with the SuperSignal™ West Pico chemiluminescent kit (Pierce Biotechnology, Rockford, Ill.). The intensity of bands is quantified using ImageQuant™ 5.2 (Amersham). […]
It was determined that A9 could activate ERK while characterizing the transactivation of receptor tyrosine kinases by the dopamine D2 receptor.

Data set [3] concerns ERK. Briefly: ERK activation in the brain. The class given is in vivo. Particulars: observation, no data shown.
For data set [4] the following is noted: Golomb et al. 1996; cited from earlier work.
The subject of data set [5] is SH-SY5Y cells. Nature of the data set: Neurite length in NGF-treated SH-SY5Y neuroblastoma cells. Format: cell-based, human. The note with it: 96 and 168 hours; for Neurite length / neurite elongation: SH-SY5Y + NGF 10 ng/ml, FK506 100 nM, A9 10 nM, 100 nM and 1 μM. How it is done:
Analysis of neurite length in SH-SY5Y neuroblastoma cells: SH-SY5Y neuroblastoma cells develop axonal-like processes on treatment with NGF. For analysis of process length, cells (20 fields/well) are randomly photographed at 96 and 168 hours. Neurite lengths are measured on photographic prints using a Houston Instrument HI-PAD digitizing tablet connected to a computer with appropriate software (Bioquant IV); only processes more than twice the cell body length are measured. Data from identically treated wells are combined. […] Histograms are compared using a Mann-Whitney U test (α=0.05), which makes no assumptions about the shape of the distribution.
As disclosed herein, high and sustained ERK activation induces neurite growth in […] neuroblastoma cells and protects neuronal cells from neurotoxins. To test this, SH-SY5Y human neuroblastoma cells were used, which can be induced into neuron-like phenotype by NGF treatment. This is an established method for measuring neurite growth-promoting activity in vitro in Dr. Gold's lab (Gold et al., Neurosignals. 13:122-129, 2004; Gold et al., Exp. Neurol. 147:269-278, 1997). […] Representative micrographs at 168 hours for vehicle (control), NGF (10 ng/ml), and NGF (10 ng/ml) plus A9 (100 nM) are shown in FIG. 5B.

Data set [6] deals with SJL mice with EAE. Nature of the data set: Axonal damage in SJL mice with EAE, SMI312/SMI32 immunohistochemistry of spinal cord. Format: in vivo, mouse. Here is the method: A9 (or the vehicle control) was administered orally.
Following treatment, the thoracic spinal cords were fixed in 4% PFA, embodied in paraffin and sectioned for IHC.

Structures are written as SMILES. “Also recorded” adds a separate entry of the source.

With `CC(C)(C)c1cc(C=C(C#N)C#N)cc(C(C)(C)C)c1O` [A9, tyrphostin A9], in data set [1], the “Concentration at which maximum dopamine uptake response is reached” value is on record as 100 nM and the Dopamine uptake result is given as “increased dopamine uptake in primary rat SNc neuron cultures in a concentration-dependent manner; also recorded: stimulated dopamine uptake increase”. Besides, the ERK activation entry in data set [2] is recorded as “but not in HEK293”. The “D2 receptor-induced activation of ERK” value in data set [2] (A9 pretreatment) is given as “prevented D2 receptor-induced activation of ERK”. For the same molecule, in data set [3], the “ERK activation in the brain” value is reported as “can cause ERK activation in the brain”. The Side effects entry in data set [4] was “has not been shown to produce obvious side effects”. For the same molecule, the “Neurite length / neurite elongation” value in data set [5] is “dramatically increased in length”. In addition, in data set [5] (listed as tyrphostin A9), the “Neurite length / neurite elongation” value is “stimulated neurite elongation”. Further, the “Distribution of neurite length (cumulative histograms), shift to the right versus NGF-treated” value in data set [5] (SH-SY5Y) is recorded as “more pronounced”. The “Damaged axons, SMI32 staining” value in data set [6] (SJL mice with EAE, 1 μg A9 orally) is “effectively reduced; also recorded: reduces the presence of damaged axons”. The “Axonal damage in the spinal cord” value in data set [6] (SJL mice, EAE induced with PLP139-151, 1 μg A9 orally) is “reduced the axonal damage”. For the same molecule, the “Ability to cross the blood brain barrier” value in data set [6] (after oral administration, inferred from CNS effect in EAE mice) is “has the ability to cross the blood brain barrier”.
